Test systems include NCI-H23; KM-20L2; SW-620; SF-539; SNB-19; HCT-15; OVCAR-8; U-251; SF-295; HL-60; CCRF-CEM; HOP-62; OVCAR-3; SR; MOLT-4; SNB-75; HT-29; SF-268; MCF7; Hs-578T.
Assay in all cases: NCI anticancer screen, dose series, 48 h

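Cells were grown in 96-well plates and exposed to each compound for 48 hours at five concentrations; endpoints were interpolated linearly between bracketing concentrations, or set to the highest concentration if not reached. Here, GI50 denotes the concentration required for 50% inhibition of growth.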 Active and inactive are the calls of the source. Rule as the data show it: active = GI50 up to about 1.1 µM and inactive = higher. A value given as a limit tells only on which side of the number the result lay.

On to `CC(C)=CC1(C)/C(=N\O)C(C)(CC(C)C)C(=O)N1O` (stereo unspecified), for which the GI50 was > 100 µM (inactive) with NCI-H23; > 100 µM (inactive) in the assay on KM-20L2; > 100 µM (inactive) with SW-620; > 100 µM (inactive) in the assay on SF-539; > 100 µM (inactive) in the assay on SNB-19; above 100 µM in the assay with HCT-15. For the same compound, the GI50 with OVCAR-8, in the assay with U-251, with SF-295, with HL-60, in the assay with CCRF-CEM and in the assay on HOP-62 was > 100 µM (inactive) each time. Moreover, the GI50 in the assay on OVCAR-3, in the assay on SR, in the assay on MOLT-4, with SNB-75 and in the assay with HT-29 was > 100 µM (inactive) in each case.

In the case of `N#C/C(=C1/Sc2c(nc[nH]c2=O)N1c1ccccc1)c1nc2ccccc2[nH]1`, the GI50 in the assay on NCI-H23 is > 100 µM (inactive); in the assay on KM-20L2, > 100 µM (inactive); with SW-620, > 100 µM (inactive); with SF-539, > 100 µM (inactive); with SNB-19, > 100 µM (inactive); in the assay with HCT-15 it was above 100 µM. The GI50 in the assay on OVCAR-8, in the assay on U-251, in the assay with SF-295, in the assay on HL-60, in the assay on CCRF-CEM and with HOP-62 was > 100 µM (inactive) each time. Also, the GI50 was > 100 µM (inactive) with SF-268; > 100 µM (inactive) with OVCAR-3; > 100 µM (inactive) with SR; > 100 µM (inactive) in the assay on MOLT-4; 26 µM (inactive) in the assay on SNB-75; > 100 µM (inactive) with HT-29.

With `C/C=C/C1=CC(=O)C(O)C1O` (stereo unspecified), the GI50 in the assay on NCI-H23 was 25.9 µM (inactive); in the assay on KM-20L2, 28.2 µM (inactive); in the assay with SW-620, 27.2 µM (inactive); in the assay on SF-539, 23.9 µM (inactive); in the assay with SNB-19 it was 37.2 µM (inactive); with HCT-15, 27.6 µM. Also, the GI50 was 24.8 µM (inactive) in the assay with OVCAR-8; 44.8 µM (inactive) in the assay on U-251; 44.7 µM (inactive) in the assay on SF-295; 15.1 µM (inactive) with HL-60; 30.8 µM (inactive) with MCF7; 22.7 µM (inactive) in the assay with CCRF-CEM. For the same compound, the GI50 with HOP-62 was 47.6 µM (inactive); with SF-268, 26.5 µM (inactive); in the assay with OVCAR-3 it was 24.5 µM (inactive); with MOLT-4, 28 µM (inactive); in the assay on SNB-75, 23.6 µM (inactive); in the assay with HT-29, 29.6 µM (inactive).

On to `O=C(c1nc2ccc(Cl)cc2nc1O)C(O)c1ccccc1` (stereo unspecified), for which the GI50 with NCI-H23 is 92.9 µM (inactive); with KM-20L2, 76 µM (inactive); in the assay on SW-620, > 100 µM (inactive); in the assay with SF-539, 57.7 µM (inactive); in the assay on SNB-19, > 100 µM (inactive); in the assay on HCT-15 it was 98.6 µM. In addition, the GI50 was > 100 µM (inactive) in the assay with OVCAR-8; > 10 µM (inactive) with U-251; > 100 µM (inactive) in the assay on SF-295; 9.86 µM (inactive) with HL-60; 2.32 µM (inactive) in the assay with CCRF-CEM; > 100 µM (inactive) in the assay with HOP-62. The GI50 with SF-268 was 77.1 µM (inactive); with OVCAR-3, 32.8 µM (inactive); in the assay with SR it was 13 µM (inactive); with MOLT-4 it was 13.2 µM (inactive); in the assay with HT-29, > 100 µM (inactive).

Turning to `c1ccc2c(c1)CCCC/C2=N/OCC1CO1` (stereo unspecified), the GI50 in the assay with NCI-H23 was 41.8 µM (inactive); in the assay with KM-20L2 it was > 100 µM (inactive); in the assay with SW-620 it was 63.4 µM (inactive); with SF-539, > 100 µM (inactive); with HCT-15, above 100 µM; in the assay with OVCAR-8 it was 45.7 µM (inactive). The GI50 with U-251 was 72.3 µM (inactive); with SF-295, 58.7 µM (inactive); with HL-60, 21.4 µM (inactive); with CCRF-CEM, 46.5 µM (inactive); with SF-268 it was 58.3 µM (inactive); with SR, 26.4 µM (inactive). Further, the figures for the GI50 in the assay with MOLT-4, in the assay on SNB-75 and in the assay on HT-29 were 32.1 µM (inactive), 54.5 µM (inactive) and 42.1 µM (inactive), respectively.

In the case of `CCCCCCCSc1nc2c(C(=O)OCC)ncn2c2ccccc12`, the GI50 is > 100 µM (inactive) in the assay with NCI-H23; > 100 µM (inactive) in the assay on KM-20L2; > 100 µM (inactive) in the assay on SW-620; above 100 µM with HCT-15; > 100 µM (inactive) in the assay on OVCAR-8; > 100 µM (inactive) with U-251. Besides, the GI50 with SF-295 is 91.8 µM (inactive); in the assay on HL-60, > 100 µM (inactive); in the assay on CCRF-CEM it was > 100 µM (inactive); with HOP-62 it was 43.3 µM (inactive); in the assay on SF-268, > 100 µM (inactive); in the assay with OVCAR-3 it was > 100 µM (inactive). The GI50 with SR, with MOLT-4 and in the assay with HT-29 was > 100 µM (inactive) each time.

In the case of `C=C1[C@@H]2CCC(C)(C)[C@H]1CCC(=O)[C@@H]2C(=O)OC`, the GI50 in the assay on NCI-H23 is > 100 µM (inactive); in the assay with KM-20L2 it was > 100 µM (inactive); in the assay on SW-620, > 100 µM (inactive); in the assay with SF-539, > 100 µM (inactive); in the assay with SNB-19 it was > 100 µM (inactive); in the assay on HCT-15, above 100 µM. The GI50 with OVCAR-8, in the assay with U-251, in the assay with SF-295, with HL-60, in the assay with CCRF-CEM and in the assay on HOP-62 was > 100 µM (inactive) in each case. In addition, the GI50 in the assay on SF-268, in the assay with OVCAR-3, in the assay on SR, in the assay with MOLT-4 and in the assay with HT-29 was > 100 µM (inactive) throughout.

As for `C[C@H](O)C(=O)SC[C@H](NC(=O)CC[C@@H](N)C(=O)O)C(=O)NCC(=O)O`, the GI50 was > 100 µM (inactive) in the assay with NCI-H23; > 100 µM (inactive) in the assay with KM-20L2; > 100 µM (inactive) in the assay on SW-620; above 100 µM in the assay on HCT-15; > 100 µM (inactive) with OVCAR-8; > 100 µM (inactive) in the assay on U-251. Moreover, the GI50 in the assay with SF-295 was > 100 µM (inactive); in the assay with HL-60 it was > 10 µM (inactive); with CCRF-CEM it was > 100 µM (inactive); in the assay with HOP-62, > 100 µM (inactive); in the assay with SF-268, > 100 µM (inactive); in the assay with OVCAR-3, > 100 µM (inactive). The GI50 in the assay with SR is > 100 µM (inactive); with MOLT-4, > 100 µM (inactive); in the assay on SNB-75, 14.5 µM (inactive); with HT-29 it was > 100 µM (inactive).

On to `CC[C@]12C=CCN3CC[C@@]4(c5cc(Br)c(OC)c([N+](=O)[O-])c5N(C)[C@H]4[C@@](O)(C(=O)OC)[C@@H]1OC(C)=O)[C@@H]32`, for which the GI50 with NCI-H23 is 56.9 µM (inactive); in the assay on SW-620, 23.8 µM (inactive); in the assay with SF-539 it was > 100 µM (inactive); in the assay with SNB-19, 71.9 µM (inactive); with HCT-15, 65.3 µM; in the assay with OVCAR-8 it was 30.5 µM (inactive). For the same compound, the GI50 in the assay with U-251 is 43.4 µM (inactive); with SF-295, 37 µM (inactive); in the assay with HL-60 it was 33.7 µM (inactive); with MCF7 it was 37.4 µM (inactive); in the assay with CCRF-CEM it was 24.7 µM (inactive); with HOP-62 it was 87.5 µM (inactive). The GI50 in the assay with SF-268 was 30.1 µM (inactive); in the assay on OVCAR-3, 34.4 µM (inactive); in the assay with SR, 25.7 µM (inactive); with MOLT-4, 13.2 µM (inactive); with Hs-578T it was 36.1 µM (inactive); in the assay on SNB-75, 30.5 µM (inactive). For the same compound, the GI50 in the assay with HT-29 is > 100 µM (inactive).

Regarding `C=CC(C)C1(CCCOCc2ccccc2)C(=S)N2CCC3(CC24CCCC14)OCCO3` (stereo unspecified), the GI50 in the assay with NCI-H23 is 6.1 µM (inactive); in the assay on KM-20L2, 62.2 µM (inactive); in the assay with SW-620, 31.6 µM (inactive); with SNB-19 it was 24.5 µM (inactive); in the assay on HCT-15, above 100 µM; in the assay on OVCAR-8 it was 23.3 µM (inactive). The GI50 with U-251 was 34.1 µM (inactive); in the assay on SF-295, 53.2 µM (inactive); in the assay with HL-60 it was 1.9 µM (inactive); with CCRF-CEM, 6.41 µM (inactive); in the assay on SF-268, 5.93 µM (inactive); in the assay with OVCAR-3, 6.76 µM (inactive). Besides, the GI50 in the assay with MOLT-4 is 3.93 µM (inactive); in the assay with SNB-75 it was 0.0506 µM (active); with HT-29, 21.9 µM (inactive).

Consider `COc1ccc(-c2c3c(nc4nc(SCCc5ccccc5)nc(N)c24)CCCC3)cc1OC`, for which the GI50 in the assay with NCI-H23 was > 100 µM (inactive); in the assay on SW-620 it was > 100 µM (inactive); in the assay on SF-539 it was 85.7 µM (inactive); in the assay on SNB-19, > 100 µM (inactive); in the assay with HCT-15, above 100 µM; with OVCAR-8, > 100 µM (inactive). Besides, the GI50 in the assay on U-251 is > 100 µM (inactive); with SF-295, 22.7 µM (inactive); in the assay on HL-60, > 100 µM (inactive); in the assay with MCF7 it was > 100 µM (inactive); with CCRF-CEM, > 100 µM (inactive); in the assay on HOP-62 it was 90.8 µM (inactive). Besides, the GI50 is > 100 µM (inactive) in the assay on SF-268; > 100 µM (inactive) with OVCAR-3; > 100 µM (inactive) in the assay with SR; > 100 µM (inactive) in the assay on MOLT-4; 27 µM (inactive) in the assay with Hs-578T; 20.5 µM (inactive) in the assay with SNB-75. The GI50 in the assay with HT-29 was > 100 µM (inactive).

As for `CCO[C@]12C[C@H](OC)[C@@]3(O)CC(C1[C@H]3O)C13C4C2[C@H](OC)C1[C@](COC)(CN4CC)[C@H](O)C[C@@H]3OC` (stereo partly specified), the GI50 is > 100 µM (inactive) in the assay on NCI-H23; > 100 µM (inactive) in the assay with KM-20L2; > 100 µM (inactive) in the assay with SW-620; > 100 µM (inactive) in the assay on SF-539; > 100 µM (inactive) in the assay with SNB-19; above 100 µM with HCT-15. The GI50 with OVCAR-8, with HL-60, in the assay on CCRF-CEM, in the assay with HOP-62, with SF-268 and in the assay with SR was > 100 µM (inactive) each time. Further, the figures for the GI50 in the assay on MOLT-4, in the assay on SNB-75 and with HT-29 were > 100 µM (inactive), > 10 µM (inactive) and > 100 µM (inactive), respectively.

The values above are taken from ChEMBL document CHEMBL1201862, “PubChem BioAssay data set” (2004).
